Results as given in ChEMBL document CHEMBL1152180, “Novel anthraquinone derivatives: synthesis via click chemistry approach and their induction of apoptosis in BGC gastric cancer cells via reactive oxygen species (ROS)-dependent mitochondrial pathway” (Bioorg Med Chem Lett, 2008).
Calls of active or inactive are those of the source. No cut-off for these calls is given here.

Assays:
BGC [1] = experiment: Induction of apoptosis in human BGC cells assessed as loss of mitochondrial membrane potential at 10 uM by flow cytometry; assay type: functional, cell-based
[2] = Cytotoxicity against human BGC cells by MTT assay; assay type: functional, cell-based
BGC [3] = experiment: Induction of apoptosis in human BGC cells assessed as loss of mitochondrial membrane potential at 10 uM by JC-1 staining based laser confocal microscopy; assay type: functional, cell-based
[4] = Induction of apoptosis in human BGC cells assessed as dead cell count at 25 uM after 24 hrs using Annexin-V-FITC PI stain by flow cytometry; assay type: functional
BGC [5] = experiment: Induction of apoptosis in human BGC cells assessed as bursting of ROS in mitochondria at 5 uM in presence of N-acetyl-cysteine; assay type: functional
[6] = Induction of apoptosis in human BGC cells assessed as non apoptotic cell count at 25 uM after 24 hrs using Annexin-V-FITC PI stain by flow cytometry; assay type: functional
BGC [7] = experiment: Induction of apoptosis in human BGC cells assessed as bursting of ROS in mitochondria at 5 uM by DCFH-DA based fluorescence scanning confocal microscopy; assay type: functional, cell-based
BGC [8] = experiment: Induction of apoptosis in human BGC cells assessed as bursting of ROS in mitochondria at 5 uM by flow cytometry; assay type: functional, cell-based
[9] = Induction of apoptosis in human BGC cells assessed as late stage apoptotic cell count at 25 uM after 24 hrs using Annexin-V-FITC PI stain by flow cytometry; assay type: functional
BGC [10] = experiment: Induction of apoptosis in human BGC cells assessed as morphological changes at 12.5 uM by Hoechst staining based laser confocal microscopy; assay type: functional, cell-based
[11] = Induction of apoptosis in human BGC cells assessed as accumulation at subG1 at 25 uM after 24 hrs by flow cytometry analysis; assay type: functional
[12] = Induction of apoptosis in human BGC cells assessed as early stage apoptotic cell count at 25 uM after 24 hrs using Annexin-V-FITC PI stain by flow cytometry; assay type: functional

Row | Structure (SMILES) | Activity (BGC [1]) | IC50 [2] | Activity (BGC [3]) | Activity [4] | Activity (BGC [5]) | Activity [6] | Activity (BGC [7]) | Activity (BGC [8]) | Activity [9] | Activity (BGC [10]) | Activity [11] | Activity [12]
1 | C[N+]1(CCCn2cc(COc3cccc4c3C(=O)c3cccc(OCc5cn(CCC[N+]6(C)CC6)nn5)c3C4=O)nn2)CC1 | Dose-dependent effect | 9.31 µM | Active | – | – | – | – | – | – | – | – | –
2 | C[N+]1(CCn2cc(COc3cccc4c3C(=O)c3cccc(OCc5cn(CC[N+]6(C)CCCC6)nn5)c3C4=O)nn2)CCCC1 | Dose-dependent effect | 6.52 µM | Active | – | – | – | – | – | – | – | – | –
3 | C[N+]1(CCn2cc(COc3cccc4c3C(=O)c3cccc(OCc5cn(CC[N+]6(C)CCCCC6)nn5)c3C4=O)nn2)CCCCC1.[I-].[I-] | Dose-dependent effect | 4.02 µM | Active | 2.1% | inactive | 74.2% | Active | Dose-dependent effect | 1% | Active | 39.4% | 22.8%
